According to US12539281B2 (priority 2021, dated 2026):

Experiments:
brain tissues = details: IA 0.3% ethyl alcohol vs normal untreated mouse
Method: Ultrathin sections of the brains previously processed with Pelco BioWave Pro (Pelco, Fresno, CA USA) are cut at 99 nm and collected on 200-mesh copper grids. The grids are post-stained in uranyl acetate (0.2%) and filtered for 15 min. Grids are further stained with lead citrate and filtered for 5 min. The Tecnai Spirit G2TEM (Nanoscience Initiative, Nicholas Terrace, New York, USA) with an installed Mega View camera is used to image the samples. The micrographs are illustrated in FIG. 5 of the drawings. The scale bar is 2 μm.

brain tumor = details: IA ethyl alcohol + IA or IV Anti-PD-1, mice
Excerpt: The standard detailed protocol is followed. Primary antibodies used are FITC-conjugated Armenian hamster anti-mouse PD-1 (11-9985-82, ThermoFisher Scientific, San Diego, CA USA), and rat anti-mouse PD-1 (BE0146, Bio X Cell, West Lebanon, NH USA). The secondary antibody is ALEXA FLUOR® 647 goat anti-rabbit (ab150083, Abcam).

[1] = tested on: blood-brain barrier (BBB)
Method: Photographs of the rats in the prone and supine positions are taken for observation and further analysis.
Experimental rats are treated with varying concentrations of IA EA (in room temperature, 300 μl 5%, 3%, and 1% EA infused slowly in 1 minute, respectively) and are applied through the arterial catheter placed into the left internal carotid artery.
Experimental rats are treated with varying concentrations of IA EA (in room temperature, 300 μl 0.3%, 0.1%, and 0.01% EA infused slowly in 1 minute, respectively). They are applied through the arterial catheter placed into the left internal carotid artery.
The rapid visualization of the extravasated EB/albumin conjugate distribution after IA catheter delivery of 3% EA by fluorescence from EB dye by confocal microscopy is performed.
The fluorescence from EB dye permits the rapid visualization of extravasated EB/albumin conjugate distribution after IA catheter delivery of 3% EA. An untreated rat group is used as a control. IA 3% EA+2% EB solution treatment is used as the testing group.
The photographs of cryostatic brain sections from an untreated rat are stained with DAPI to illustrate the background nuclear staining under confocal imaging, respectively. The photo-/micrographs and magnified confocal images of the brain from the rat treated with IA 3% EA+2% EB solution are obtained for studies and comparison. The micrograph of the whole brain section is scanned by confocal microscopy to obtain the confocal images. The confocal images are further enlarged for observation.

[2] = tested on: blood-brain barrier (BBB); experiment: Comparison of intracardiac EA and NEO100 mediated BBB opening, EB dye (Comparative Experiment 19, Experiment 20); type: in vivo, mice; details: mice
Method: Intracardiac injected various concentrations of EA (at 25%, 20%, 3%, 0.3%, and 0.1%, 0.03%, 0.01%) and NEO100 (at 25%, 20%, 3%, 0.3%, and 0.1%, 0.03%, 0.01%) are used on mice to test their effects on BBB disruption and evaluated by the observation of extravasated EB dye in the brain tissues. […] Photographs of the perfused brain tissues from the experimental mice treated with […] EA and NEO100 are taken for observation and comparison.
The same procedure as experiment 19 was performed with IA 0.3% NEO100 with 2% EB dye solution.

[3] = tested on: blood-brain barrier (BBB); details: rats
Excerpt: (§1) In this experiment, the microcatheter is placed in the left internal carotid artery (ICA). The left internal carotid artery (ICA) leads to the left hemisphere of the brain. (That is, the selected intracerebral artery is the left internal carotid artery (ICA); and the target area is the left hemisphere of the brain.)
(§2) Evans blue (EB) dye is used as the non-BBB permeable substance.
To validate the limited, localized, and targeted BBB opening mediated by intra-arterial EA around the area supplied by the corresponding artery, a microcatheter is inserted from the CCA, proceeded along the ICA, positioned at the origin of the MCA, and infused with 300 μL of a 3% EA in a 2% EB dye solution. The effect of the compromised BBB can be determined by observing the penetration of the EB dye (doesn't pass through the BBB in normal physical condition).

[4] = tested on: blood-brain barrier (BBB); details: 300 μl 3% EA via microcatheter in left ICA, IV 2% EB at 30 min intervals, rats
Excerpt: as §2, §1

[5] = tested on: blood-brain barrier (BBB); experiment: Microcatheter 3% EA-mediated delivery of Alexa Fluor 647-labeled anti-human IgG antibody, confocal imaging (Experiment 25); type: in vivo; details: 300 μL 3% EA via microcatheter then 10% labeled antibody, rats
Method: Following the perfusion of 300 μL of 3% EA through the intracerebral artery microcatheter, 10% Alexa Fluor® 647-labeled anti-human IgG antibody [EPR4421] (Ab307521, Abcam, UK) is slowly injected along the catheter (5-10 minutes). Two hours later, the brain tissue is perfused and removed after euthanasia. The pathological tissue sections are stained with DAPI, and confocal imaging is performed to evaluate the distribution of Alexa Fluor® 647-labeled anti-human IgG antibody in the rat brain. The experimental rats are injected with 300 μL of 0.9% NaCl without any concentration of EA as a negative control.
The blue color comes from the nuclei stained with DAPI. The pink color comes from the rabbit anti-human IgG antibody labeled with Alexa Fluor 647.

[6] = tested on: intracranial HER2-positive 4T1 breast cancer; details: IA ethyl alcohol with IV Trastuzumab vs IV Trastuzumab, mice with intracranial HER2-positive 4T1 tumor
tight junction proteins = details: immediately after IA EA is administered
Excerpt: The membrane and cytosolic proteins are extracted with a MEM-PER™ Plus Membrane Protein Extraction Kit (ThermoFisher Scientific, Waltham, MA USA). Proteins are separated by SDS-PAGE and transferred to nitrocellulose membranes. Primary antibodies used are rabbit anti-claudin-3 (ab15102), rabbit anti-claudin-5 (ab15106), rabbit anti-claudin-6 (ab99226), rabbit anti-JAM (ab125886), rabbit anti-occludin (ab222691, 1:200, Abcam, Cambridge, MA USA), and mouse anti-β-actin (66009, 1:1000, Proteintech, Rosemont, IL USA). Secondary antibodies used are HRP-conjugated goat anti-mouse (SA00001, 1:2500, Proteintech) and goat anti-rabbit (7074, 1:2500, Cell Signaling Technology).
Western Blot examined and quantified the tight junction proteins in brain tissues.

[7] = tested on: blood-brain barrier (BBB); details: intracardiac EA 3%, 1%, 0.3%, 0.1%, and 0.01% in 2% EB, rats
Excerpt: Set up the ultrasound imaging system before anesthetizing the rats; to anesthetize the rats in an induction chamber using 3-4% isoflurane in 100% oxygen at a rate of 0.2-0.5 L/min; to confirm proper anesthetization before performing imaging by pinching the toe, rolling the rats. • 2. Remove the fur over the thorax area using hair removal cream. • 3. Place the experimental animal on the imaging table in the supine position and secure both the upper and lower limbs with adhesive tape to avoid body movement during the procedure. • 4. Clean up the skin of the thorax area using a 10% povidone/iodine swab followed by a 70% ethanol swab. Apply a thick layer of gel to the thorax area of the animal. • 5. Mount the transducer and adjust the position until the left ventricle is clearly visible. • 6. […] To visualize pulsating blood, keep a small air column in the syringe; advance the syringe towards the animal thorax, adjust the needle trajectory using the ultrasound guidance, and enter the left ventricle, and to complete the IC injection within 30 seconds. • 7. Withdraw the needle, release that rat, and monitor until complete recovery from anesthesia
The rats are treated with varying concentrations of EA via intracardiac injection. […] Sham control (without treatment as negative control) is included in this experiment.

[8] = tested on: blood-brain barrier (BBB); details: group B: 300 μl 3% EA infused in 5 seconds, room temperature
[9] = cited from earlier work
[10] = Comparison of the toxicity of IA NEO100 and IA EA (Experiment 21)
Method: The safety profile of IA 0.3% NEO100 vs. IA 0.3% EA are compared. […] There are 15 experimental mice in each testing group. The potential adverse effects are evaluated.

[11] = IA injection 0.3%, 15 mice per group, number of mice

CCO [ethyl alcohol]
ultrastructure of brain tissues (TEM) (brain tissues): many open spaces | anti-PD-1 antibody brain tumor entry (brain tumor): can mediate checkpoint inhibitor anti-PD-1 antibody brain tumor entry | extravasated EB at the lowest concentration of EA ([1]; 300 μl 0.01% EA in 1 minute via left ICA catheter, rats): can still be visualized in the left hemisphere of the brain tissue | extravasated EB in coronal sections ([1]; 300 μl 5%, 3%, and 1% EA in 1 minute via left ICA catheter, 2 hours after, rats): spreading out homogeneously through almost the whole section of the left hemisphere of the brain | autofluorescence from EB/albumin by confocal microscopy ([1]; IA 3% EA+2% EB, whole brain section, left hemisphere, rat): massive spreading of autofluorescence | location of extravasated EB ([1]; left-side IA catheter, EA+2% EB, Fisher 344 rats): inside the left vitreous humor, but not inside the right | pattern of BBB opening, coronal section ([2]; IA 0.1% EA): homogenized BBB opening | dose response of BBB disruption ([2]; intracardiac 25%, 20%, 3%, 0.3%, 0.1%, 0.03%, 0.01%): dose-reverse response | extent of BBB opening (EB dye penetration) ([3]; 300 μL 3% EA in 2% EB, microcatheter at origin of MCA): site-specific BBB opening, which is limited to the area supplied by the MCA only | delivery of EB dye to target area ([3]; EA 0.1% to 0.5%, microcatheter in left ICA): can be used to deliver EB dye to the left hemisphere of the brain | time until disrupted BBB is restored [4]: around 2 hours | penetration and spread of Alexa Fluor 647-labeled anti-human IgG antibodies in the brain [5]: significantly improve the penetration and spread | Trastuzumab brain tumor entry (integrated optical density, confocal imaging) [6]: significantly enhance | time for which tight junction proteins in the BBB are reduced (tight junction proteins): about 120 minutes | tinted blue color (extravasated Evans blue) in brain [7]: observed in all treatment groups | EB (induced BBB disruption) [8]: observed | solubility in water [9]: infinitely soluble (fully miscible) | tested animals that experienced adverse effects ([10]; IA injection 0.3%, 15 mice per group): less than 50% | Immediate Sudden Death [10, 11]: 0 | Intermediate-lasting epilepsy post-injection leading to death [10, 11]: 0 | Long-lasting epilepsy post-injection leading death [10, 11]: 0 | Moderate-lasting epilepsy post-injection and survival to fully recovery [10, 11]: 3 | Transient, mild, or occasional epilepsy post-injection and survival to fully recovery [10, 11]: 3 | Mortality ([10]; IA injection 0.3%, 15 mice per group, listed as EA): 0% | overall mortality rate ([10]; repeated comparative experiments of IA EA and IA NEO100): less than or equal to 1%
